± gives the standard deviation of the averaged measurements.
Legend:
Test in all cases: relative viability vs DMSO control (72 h) (fraction); higher = more viable cells
KHOS-240S = tested on: KHOS-240S
Outline: (§1)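 Percent growth from ATPLite readings, averaged over up to triplicate wells, was used as relative viability. Sarcoma cell lines were seeded into 384-well plates for 80–90% confluence, dosed after 24 h, and kept 72 h at 37 °C, 5% CO2. Data were rescaled to a range where 1 is full and 0 is none.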

SW982 = tested on: SW982
Outline: as §1

RD-ES = tested on: RD-ES
Outline: as §1

SK-ES-1 = tested on: SK-ES-1
Outline: as §1

RD = tested on: RD
Outline: as §1

COCCNc1cc(NC(=O)N2CCCc3cc(CN4CCN(C)CC4=O)c(C=O)nc32)ncc1C#N [Roblitinib]
relative viability
Conditions | KHOS-240S | RD | RD-ES | SK-ES-1 | SW982
0.00017 µM | 1.04 ± 0.029 | 1.08 ± 0.043 | 0.972 ± 0.016 | 0.964 ± 0.035 | 1.013 ± 0.0057
0.00051 µM | 1.04 ± 0.032 | 1.074 ± 0.0052 | 0.981 ± 0.023 | 0.979 ± 0.019 | 0.995 ± 0.019
0.00152 µM | 1.026 ± 0.0035 | 1.053 ± 0.0062 | 0.986 ± 0.033 | 0.986 ± 0.023 | 0.991 ± 0.02
0.00457 µM | 1.04 ± 0.021 | 1.08 ± 0.026 | 0.965 ± 0.03 | 0.974 ± 0.022 | 1.03 ± 0.04
0.01372 µM | 1.02 ± 0.019 | 1.08 ± 0.026 | 0.968 ± 0.025 | 1.03 ± 0.032 | 0.992 ± 0.016
0.04115 µM | 1.03 ± 0.0099 | 1.09 ± 0.019 | 0.9621 ± 0.0066 | 0.973 ± 0.032 | 1.03 ± 0.051
0.1235 µM | 1.035 ± 0.0076 | 1.1 ± 0.012 | 0.958 ± 0.027 | 1.02 ± 0.047 | 0.992 ± 0.018
0.3704 µM | 1.03 ± 0.028 | 1.118 ± 0.0069 | 0.952 ± 0.03 | 0.985 ± 0.026 | 1.03 ± 0.04
1.111 µM | 1 ± 0.017 | 1.04 ± 0.019 | 0.936 ± 0.019 | 0.92 ± 0.015 | 1.03 ± 0.023
3.333 µM | 0.963 ± 0.034 | 1.08 ± 0.033 | 0.884 ± 0.037 | 0.916 ± 0.019 | 1.01 ± 0.065
10 µM | 0.967 ± 0.055 | 1.01 ± 0.056 | 0.867 ± 0.059 | 0.74 ± 0.018 | 0.9846 ± 0.0093

CC(C)Oc1ccc(-c2nn([C@@H](C)c3oc4ccc(F)cc4c(=O)c3-c3cccc(F)c3)c3ncnc(N)c23)cc1F [Umbralisib]
relative viability
Conditions | KHOS-240S | RD | RD-ES | SK-ES-1 | SW982
0.00017 µM | 1.05 ± 0.015 | 1.1 ± 0.026 | 1 ± 0.037 | 1.07 ± 0.024 | 1.03 ± 0.033
0.00051 µM | 1.08 ± 0.024 | 1.08 ± 0.033 | 1 ± 0.035 | 1.07 ± 0.043 | 1.078 ± 0.0034
0.00152 µM | 1.09 ± 0.029 | 1.11 ± 0.041 | 1.01 ± 0.043 | 1.05 ± 0.084 | 1.07 ± 0.015
0.00457 µM | 1.08 ± 0.04 | 1.1 ± 0.033 | 1.001 ± 0.0029 | 1.07 ± 0.025 | 1.06 ± 0.03
0.01372 µM | 1.07 ± 0.033 | 1.113 ± 0.011 | 0.979 ± 0.017 | 1.06 ± 0.046 | 1.05 ± 0.017
0.04115 µM | 1.06 ± 0.013 | 1.11 ± 0.016 | 1 ± 0.019 | 1.09 ± 0.011 | 1.067 ± 0.006
0.1235 µM | 1.07 ± 0.037 | 1.12 ± 0.032 | 1.02 ± 0.022 | 1.04 ± 0.043 | 1.07 ± 0.027
0.3704 µM | 1.06 ± 0.034 | 1.08 ± 0.026 | 1 ± 0.035 | 1.04 ± 0.039 | 1.079 ± 0.01
1.111 µM | 1.03 ± 0.031 | 1.14 ± 0.016 | 0.994 ± 0.031 | 1.04 ± 0.04 | 1.063 ± 0.006
3.333 µM | 1 ± 0.054 | 1.11 ± 0.027 | 1.01 ± 0.022 | 1.08 ± 0.078 | 1.08 ± 0.025
10 µM | 0.909 ± 0.027 | 1.11 ± 0.055 | 1.02 ± 0.022 | 1.02 ± 0.037 | 1.12 ± 0.02

CO[C@H]1C[C@@H]2CC[C@@H](C)[C@@](O)(O2)C(=O)C(=O)N2CCCC[C@H]2C(=O)O[C@H]([C@H](C)C[C@@H]2CC[C@@H](OCCO)[C@H](OC)C2)CC(=O)[C@H](C)/C=C(\C)[C@@H](O)[C@@H](OC)C(=O)[C@H](C)C[C@H](C)/C=C/C=C/C=C/1C [Certican]
relative viability
Conditions | KHOS-240S | RD | RD-ES | SK-ES-1 | SW982
0.00017 µM | 1.05 ± 0.023 | 1.09 ± 0.046 | 0.967 ± 0.024 | 1 ± 0.034 | 1 ± 0.055
0.00051 µM | 1.01 ± 0.087 | 1.09 ± 0.059 | 0.939 ± 0.028 | 1.01 ± 0.037 | 0.882 ± 0.055
0.00152 µM | 0.935 ± 0.093 | 0.964 ± 0.078 | 0.843 ± 0.019 | 0.983 ± 0.022 | 0.79 ± 0.049
0.00457 µM | 0.889 ± 0.061 | 0.888 ± 0.045 | 0.807 ± 0.035 | 0.774 ± 0.031 | 0.756 ± 0.047
0.01372 µM | 0.851 ± 0.037 | 0.848 ± 0.013 | 0.772 ± 0.055 | 0.694 ± 0.028 | 0.728 ± 0.035
0.04115 µM | 0.845 ± 0.046 | 0.8231 ± 0.0035 | 0.728 ± 0.045 | 0.648 ± 0.049 | 0.68 ± 0.034
0.1235 µM | 0.815 ± 0.051 | 0.773 ± 0.032 | 0.676 ± 0.065 | 0.592 ± 0.036 | 0.679 ± 0.026
0.3704 µM | 0.786 ± 0.041 | 0.7358 ± 0.0052 | 0.658 ± 0.066 | 0.55 ± 0.014 | 0.645 ± 0.019
1.111 µM | 0.784 ± 0.052 | 0.73 ± 0.044 | 0.598 ± 0.087 | 0.552 ± 0.012 | 0.618 ± 0.019
3.333 µM | 0.75 ± 0.051 | 0.71 ± 0.071 | 0.552 ± 0.08 | 0.533 ± 0.029 | 0.599 ± 0.03
10 µM | 0.717 ± 0.059 | 0.657 ± 0.065 | 0.488 ± 0.12 | 0.499 ± 0.016 | 0.604 ± 0.024

Cc1ccc(Nc2nccc(N(C)c3ccc4c(C)n(C)nc4c3)n2)cc1S(N)(=O)=O [Pazopanib]
relative viability
Conditions | KHOS-240S | RD | RD-ES | SK-ES-1 | SW982
0.00017 µM | 1.03 ± 0.037 | 1.11 ± 0.064 | 0.95 ± 0.045 | 1.02 ± 0.043 | 1.04 ± 0.027
0.00051 µM | 1.04 ± 0.05 | 1.12 ± 0.065 | 0.95 ± 0.063 | 1.001 ± 0.0028 | 1.01 ± 0.057
0.00152 µM | 1.05 ± 0.048 | 1.12 ± 0.068 | 0.968 ± 0.023 | 1.02 ± 0.024 | 1.03 ± 0.026
0.00457 µM | 1.04 ± 0.039 | 1.11 ± 0.061 | 0.962 ± 0.043 | 1.03 ± 0.026 | 1.03 ± 0.046
0.01372 µM | 1.03 ± 0.028 | 1.11 ± 0.049 | 0.985 ± 0.027 | 1.02 ± 0.043 | 1.05 ± 0.031
0.04115 µM | 1.02 ± 0.049 | 1.12 ± 0.047 | 0.975 ± 0.038 | 1.02 ± 0.023 | 1.05 ± 0.03
0.1235 µM | 0.975 ± 0.048 | 1.12 ± 0.065 | 0.96 ± 0.047 | 1.02 ± 0.053 | 1.03 ± 0.038
0.3704 µM | 0.974 ± 0.036 | 1.13 ± 0.087 | 0.973 ± 0.031 | 1 ± 0.054 | 1.04 ± 0.044
1.111 µM | 0.932 ± 0.02 | 1.12 ± 0.067 | 1 ± 0.044 | 1.01 ± 0.035 | 1.06 ± 0.026
3.333 µM | 0.88 ± 0.038 | 1.16 ± 0.079 | 0.9311 ± 0.002 | 0.916 ± 0.034 | 1.016 ± 0.0011
10 µM | 0.621 ± 0.0081 | 1.1 ± 0.027 | 0.727 ± 0.02 | 0.524 ± 0.041 | 0.729 ± 0.033

COC(=O)[C@@]1(O)C[C@H]2O[C@]1(C)n1c3ccccc3c3c4c(c5c6ccccc6n2c5c31)C(=O)NC4 [K-252a]
relative viability
Conditions | KHOS-240S | RD | RD-ES | SK-ES-1 | SW982
0.00017 µM | 1.06 ± 0.053 | 1.07 ± 0.021 | 0.991 ± 0.041 | 1.06 ± 0.039 | 1.05 ± 0.015
0.00051 µM | 1.05 ± 0.027 | 1.08 ± 0.021 | 1.02 ± 0.015 | 1.05 ± 0.037 | 1.064 ± 0.007
0.00152 µM | 1.08 ± 0.037 | 1.11 ± 0.031 | 1.01 ± 0.017 | 1.02 ± 0.061 | 1.079 ± 0.01
0.00457 µM | 1.06 ± 0.011 | 1.12 ± 0.027 | 1.02 ± 0.013 | 1.02 ± 0.075 | 1.07 ± 0.022
0.01372 µM | 1.05 ± 0.041 | 1.13 ± 0.021 | 0.979 ± 0.029 | 0.778 ± 0.044 | 1.02 ± 0.022
0.04115 µM | 0.998 ± 0.011 | 1.13 ± 0.017 | 0.797 ± 0.012 | 0.508 ± 0.016 | 0.733 ± 0.015
0.1235 µM | 0.815 ± 0.049 | 1.09 ± 0.018 | 0.578 ± 0.024 | 0.398 ± 0.0073 | 0.559 ± 0.03
0.3704 µM | 0.553 ± 0.01 | 1 ± 0.015 | 0.488 ± 0.023 | 0.256 ± 0.017 | 0.443 ± 0.0062
1.111 µM | 0.346 ± 0.011 | 0.507 ± 0.011 | 0.175 ± 0.019 | 0.126 ± 0.0089 | 0.2914 ± 0.0025
3.333 µM | 0.258 ± 0.0071 | 0.278 ± 0.013 | 0.0819 ± 0.0047 | 0.115 ± 0.0034 | 0.151 ± 0.018
10 µM | 0.0419 ± 0.0046 | 0.0929 ± 0.0062 | 0.0303 ± 0.0099 | 0.114 ± 0.0063 | 0.0215 ± 0.0027
